Consider 14 molecules from patent US20220380342A1, “BIPHENYL DERIVATIVES FOR BLOCKING PD-1/PD-L1 INTERACTION, PREPARATION METHOD THEREFOR AND USE THEREOF” (Abbisko Therapeutics Co., Ltd., priority 2019, published 2022).

Experiment [1] concerns the target T1, interaction between PD-1 and PD-L1 (Homo sapiens, UniProt Q9NZQ7).
T1 construct: purchased Cisbio 64ICP01PEG or 64ICP01PEH
In words: PD1-PDL1 HTRF binding activity test. As to conditions: Cisbio PD-1/PD-L1 binding assay kit; percent inhibition vs DMSO. As to the method: The effect of compounds of the examples of the present invention on the interaction between PD-1 and PD-L1 was determined by the PD-1/PD-L1 binding assay kit from Cisbio (#64ICP01PEG or 64ICP01PEH). The detailed experimental process was as follows:
1) Pre-diluted compound solution, 4 μL of Tag1-PD-L1 and 4 μL of Tag2-PD1 were added to each well of a 384-well plate;
2) After the mixture was incubated at room temperature for 15 min, 5 μL of anti-Tag1-Eu3+ antibody and 5 μL of anti-Tag2-XL665 antibody were then added;
3) After incubated for 2 hrs at room temperature or overnight at 4° C., plates were read on Envision of Perkin Elmer; and readings at 665 nm and 620 nm were recorded, and the ratio of the two readings was taken as a reading for each well;
4) The reading of each well after compound treatment was compared with the reading of DMSO treated wells to obtain the percent inhibition of the compound; and
5) IC50 values of compounds of the examples of the present invention were determined by non-linear regression analysis of percent inhibition at different compound concentrations.

Experiment [2] concerns the target T2, interaction between PD-1 and PD-L1 expressed on cell surfaces (Jurkat/NF-κB-luc/PD1 cells cocultured with Raji-PD-L1 cells) (Homo sapiens, UniProt Q9NZQ7).
T2 construct: expressed in transfected cells; host or cells: Raji cells (PD-L1); Jurkat cells (PD-1, NF-κB-luc reporter)
As to the kind of experiment: Jurkat reporter gene cellular assay. Format: cell-based. The settings on record: OKT3 1 μg/mL stimulation, 6 hrs, activation fold vs DMSO. The method, then:
The effect of compounds of the examples of the present invention on the interaction between PD-1 and PD-L1 expressed on cell surfaces, and the related influence on T cell functions, were determined by a Jurkat reporter gene cellular assay.
Briefly, the reporter gene plasmid of NF-κB-luc and the plasmid of human PD-1 were transfected into Jurkat cells to establish a stably transfected cell line capable of stably expressing both PD-1 and NF-κB-Luc reporter genes; the expression level of PD-1 on the cell surface was confirmed by flow cytometry; and the expression of the reporter gene was confirmed via the response of the reporter gene stimulated by OKT-3 and Raji cells.
In addition, the plasmid of human PD-L1 was transfected into Raji cells to obtain a cell line capable of stably expressing PD-L1. Jurkat/NF-κB-luc/PD1 cells and Raji-PD-L1 cells were then cocultured and stimulated with OKT-3. On this basis, the compounds were added, and the enhancement of the signal pathway of T cell activation by the inhibitory effect of the compounds on the interaction between PD-1 and PD-L1 was evaluated by readings of reporter gene responses. The specific experimental process was as follows:
1) 30 μL of compound or antibody solution was added to each well of a white 96-well plate (Corning, 3610) at different diluted concentrations, and 10 μL of OKT3 (Biolegend, 317326) was then added (the final concentration of OKT3: 1 μg/mL);
2) 20 μL of Raji-PD-L1 cell suspension was added to each well with 5*10^4 cells for each well, and was incubated in an incubator for 20 min;
3) 20 μL of Jurkat/NF-Kb-luc/PD-1 cell suspension was added to each well with 5*10^4 cells for each well, and was well mixed, and 6 hrs later, Bright-glo (Promega, E2620) was applied and plates were read on Envision;
4) The reading of each well treated with the compound was compared with the reading of each well treated with DMSO to obtain the activation fold of the compound; and
5) EC50 values of compounds of the examples of the present invention were determined by non-linear regression analysis of activation folds at different compound concentrations.
A general note: Reporter assays use an easily measured gene product as a stand-in for the process of interest.

T1 sequence (Q9NZQ7 19-238 limits assumed): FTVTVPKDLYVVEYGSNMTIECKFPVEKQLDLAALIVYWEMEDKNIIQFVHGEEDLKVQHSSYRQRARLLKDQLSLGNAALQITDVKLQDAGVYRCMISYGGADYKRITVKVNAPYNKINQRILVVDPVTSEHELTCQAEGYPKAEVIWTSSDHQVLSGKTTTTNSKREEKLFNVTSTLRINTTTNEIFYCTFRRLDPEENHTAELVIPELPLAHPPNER
T2 sequence (Q9NZQ7 19-290): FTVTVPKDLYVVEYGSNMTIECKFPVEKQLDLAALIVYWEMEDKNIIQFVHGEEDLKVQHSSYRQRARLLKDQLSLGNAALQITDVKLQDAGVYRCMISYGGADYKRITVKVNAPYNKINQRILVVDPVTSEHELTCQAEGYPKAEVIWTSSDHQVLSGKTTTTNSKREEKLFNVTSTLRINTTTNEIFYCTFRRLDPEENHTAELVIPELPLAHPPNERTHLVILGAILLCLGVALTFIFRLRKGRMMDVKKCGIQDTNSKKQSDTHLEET

The term IC50 denotes the concentration that inhibits the measured activity by half. Read a high IC50 as a need for much substance. The EC50 is the concentration at which the effect is half-maximal. Read a high EC50 as a need for much substance. For the molecule `Cc1c(NC(=O)c2cc(C3CC3)c(CNC3COC3)cn2)cccc1-c1cccc(NC(=O)c2cc(C3CC3)c(CN3CCCC[C@H]3C(=O)O)cn2)c1C` [Example 23, (S)-1-((4-cyclopropyl-6-((3′-(4-cyclopropyl-5-((oxetan-3-ylamino)methyl)picolinamido)-2,2′-dimethyl-[1,1′-biphenyl]-3-yl)carbamoyl)pyridin-3-yl)methyl)piperidine-2-carboxylic acid], the IC50 in experiment [1] stood at 2.57 nM. The half-maximal effective concentration (EC50) in experiment [2] worked out at 77.5 nM.

Take `Cc1c(NC(=O)c2cc(C3CC3)c(CNC3CCOCC3)cn2)cccc1-c1cccc(NC(=O)c2cc(C3CC3)c(CN3CCCC[C@H]3C(=O)O)cn2)c1C` [Example 24, (S)-1-((4-cyclopropyl-6-((3′-(4-cyclopropyl-5-(((tetrahydro-2H-pyran-4-yl)amino)methyl)picolinamido)-2,2′-dimethyl-[1,1′-biphenyl]-3-yl)carbamoyl)pyridin-3-yl)methyl)piperidine-2-carboxylic acid]: the IC50 in experiment [1] amounted to 0.91 nM. This molecule also came in with an EC50 in experiment [2] of 52 nM.

Consider `Cc1c(NC(=O)c2cc(C3CC3)c(CN[C@H]3CCOC3)cn2)cccc1-c1cccc(NC(=O)c2cc(C3CC3)c(CN3CCCC[C@H]3C(=O)O)cn2)c1C` [Example 25, (S)-1-((4-cyclopropyl-6-((3′-(4-cyclopropyl-5-((((S)-tetrahydrofuran-3-yl)amino)methyl)picolinamido)-2,2′-dimethyl-[1,1′-biphenyl]-3-yl)carbamoyl)pyridin-3-yl)methyl)piperidine-2-carboxylic acid], for which the half-maximal inhibitory concentration (IC50) in experiment [1] amounted to 0.91 nM. Besides, the response in experiment [2] was half-maximal at 8.7 nM (EC50).

As to `Cc1c(NC(=O)c2cc(C3CC3)c(CN3CCC[C@H]3CO)cn2)cccc1-c1cccc(NC(=O)c2cc(C3CC3)c(CN3CCCC[C@H]3C(=O)O)cn2)c1C` [Example 27, (S)-1-((4-cyclopropyl-6-((3′-(4-cyclopropyl-5-(((S)-2-(hydroxymethyl)pyrolidin-1-yl)methyl)picolinamido)-2, 2′-dimethyl-[1,1′-biphenyl]-3-yl)carbamoyl)pyridin-3-yl)methyl)piperidine-2-carboxylic acid], the IC50 in experiment [1] worked out at 2.62 nM. In experiment [2], this molecule returned an EC50 of 27.3 nM.

For the molecule `Cc1c(NC(=O)c2cc(C3CC3)c(CN3CCC[C@@H]3CO)cn2)cccc1-c1cccc(NC(=O)c2cc(C3CC3)c(CN3CCCC[C@H]3C(=O)O)cn2)c1C` [Example 28, (S)-1-((4-cyclopropyl-6-((3′-(4-cyclopropyl-5-(((R)-2-(hydroxymethyl)pyrolidin-1-yl)methyl)picolinamido)-2, 2′-dimethyl-[1,1′-biphenyl]-3-yl)carbamoyl)pyridin-3-yl)methyl)piperidine-2-carboxylic acid], the IC50 in experiment [1] came to 4.17 nM. For the same molecule, in experiment [2], the EC50 came out at 35.3 nM.

`CCOC(=O)[C@@H](CO)NCc1cnc(C(=O)Nc2cccc(-c3cccc(NC(=O)c4cc(C5CC5)c(CN5CCCC[C@H]5C(=O)O)cn4)c3C)c2C)cc1C1CC1` [Example 29, (S)-1-((4-cyclopropyl-6-((3′-(4-cyclopropyl-5-((((R)-1-ethoxy-3-hydroxy-1-oxopropan-2-yl)amino)methyl)picolinamido)-2,2′-dimethyl-[1,1′-biphenyl]-3-yl)carbamoyl)pyridin-3-yl)methyl)piperidine-2-carboxylic acid] yielded an IC50 in experiment [1] of 1.61 nM. In experiment [2], the EC50 turned out to be 115 nM.

Take `Cc1c(NC(=O)c2cc(C3CC3)c(CN[C@H](CO)C(=O)O)cn2)cccc1-c1cccc(NC(=O)c2cc(C3CC3)c(CN3CCCC[C@H]3C(=O)O)cn2)c1C` [Example 30, (S)-1-((6-((3′-(5-((((R)-1-carboxy-2-hydroxyethyl)amino)methyl)-4-cyclopropylpicolinamido)-2,2′-dimethyl-[1,1′-biphenyl]-3-yl)carbamoyl)-4-cyclopropylpyridin-3-yl)methyl)piperidine-2-carboxylic acid]: in experiment [1], the IC50 was 0.97 nM. In experiment [2], this molecule registered an EC50 of 18.1 nM.

Turning to `CCOC(=O)[C@H](CO)NCc1cnc(C(=O)Nc2cccc(-c3cccc(NC(=O)c4cc(C5CC5)c(CN5CCCC[C@H]5C(=O)O)cn4)c3C)c2C)cc1C1CC1` [Example 31, (S)-1-((4-cyclopropyl-6-((3′-(4-cyclopropyl-5-((((S)-1-ethoxy-3-hydroxy-1-oxopropan-2-yl)amino)methyl)picolinamido)-2,2′-dimethyl-[1,1′-biphenyl]-3-yl)carbamoyl)pyridin-3-yl)methyl) piperidine-2-carboxylic acid], the IC50 in experiment [1] is 2.57 nM. Also, a half-maximal effect in experiment [2] (EC50) was put at 42.6 nM.

As for `Cc1c(NC(=O)c2cc(C3CC3)c(CN[C@@H](CO)C(=O)O)cn2)cccc1-c1cccc(NC(=O)c2cc(C3CC3)c(CN3CCCC[C@H]3C(=O)O)cn2)c1C` [Example 32, (S)-1-((6-((3′-(5-((((S)-1-carboxy-2-hydroxyethyl)amino)methyl)-4-cyclopropylpicolinamido)-2,2′-dimethyl-[1,1′-biphenyl]-3-yl)carbamoyl)-4-cyclopropylpyridin-3-yl)methyl) piperidine-2-carboxylic acid], the 50% inhibitory concentration (IC50) in experiment [1] came to 1.85 nM. Besides, the EC50 in experiment [2] was 44.8 nM.

Turning to `Cc1c(NC(=O)c2cc(C3CC3)c(CNCCO)cn2)cccc1-c1cccc(NC(=O)c2cc(C3CC3)c(CN[C@H](CO)C(=O)O)cn2)c1C` [Example 35, ((4-cyclopropyl-6-((3′-(4-cyclopropyl-5-(((2-hydroxyethyl)amino)methyl)picolinamido)-2,2′-dimethyl-[1,1′-biphenyl]-3-yl)carbamoyl)pyridin-3-yl)methyl)-D-serine], the IC50 in experiment [1] is 1.95 nM. The molecule further yielded an EC50 in experiment [2] of 28.6 nM.

Turning to `CCOC(=O)[C@@H](CO)NCc1cnc(C(=O)Nc2cccc(-c3cccc(NC(=O)c4cc(C5CC5)c(CNCCO)cn4)c3C)c2C)cc1C1CC1` [Example 35-1, ethyl ((4-cyclopropyl-6-((3′-(4-cyclopropyl-5-(((2-hydroxyethyl)amino)methyl)picolinamido)-2,2′-dimethyl-[1,1′-biphenyl]-3-yl)carbamoyl)pyridin-3-yl)methyl)-D-serinate], in experiment [1], the IC50 turned out to be 3.03 nM. Further, the 50% effective concentration (EC50) in experiment [2] was determined as 231 nM.

`Cc1c(NC(=O)c2cc(C3CC3)c(CN[C@H](CO)C(=O)O)cn2)cccc1-c1cccc(NC(=O)c2cc(C3CC3)c(CN3CC(C)(O)C3)cn2)c1C` [Example 36, ((4-cyclopropyl-6-((3′-(4-cyclopropyl-5-((3-hydroxy-3-methylazetidin-1-yl)methyl)picolinamido)-2,2′-dimethyl-[1,1′-biphenyl]-3-yl)carbamoyl)pyridin-3-yl)methyl)-D-serine] returned an IC50 in experiment [1] of 0.72 nM. Also, the EC50 in experiment [2] was found to be 52 nM.

In turn, `Cc1c(NC(=O)c2cc(C3CC3)c(CNCCO)cn2)cccc1-c1cccc(NC(=O)c2cc(C3CC3)c(CN[C@@H](CO)C(=O)O)cn2)c1C` [Example 37, ((4-cyclopropyl-6-((3′-(4-cyclopropyl-5-(((2-hydroxyethyl)amino)methyl)picolinamido)-2,2′-dimethyl-[1,1′-biphenyl]-3-yl)carbamoyl)pyridin-3-yl)methyl)-L-serine] had an IC50 in experiment [1] of 0.95 nM. A half-maximal response in experiment [2] (EC50) required 25.2 nM.

`CCOC(=O)[C@H](CO)NCc1cnc(C(=O)Nc2cccc(-c3cccc(NC(=O)c4cc(C5CC5)c(CNCCO)cn4)c3C)c2C)cc1C1CC1` [Example 37-1, Ethyl ((4-cyclopropyl-6-((3′-(4-cyclopropyl-5-(((2-hydroxyethyl)amino)methyl)picolinamido)-2,2′-dimethyl-[1,1′-biphenyl]-3-yl)carbamoyl)pyridin-3-yl)methyl)-L-serinate] displayed a half-maximal inhibitory concentration (IC50) in experiment [1] of 5.58 nM. The EC50 in experiment [2] came to 265 nM.
